Patent EP1536235A2, “Method for detecting environmental pollution using 14-3-3 proteins as biomarkers” (MÜLLER, Werner E. G., priority 1998, dated 1999)

Assays:
14-3-3 Protein = assay: ELISA quantification of 14-3-3 protein in liver after i.p. injection; conditions: liver after 5 days, Kontrolle 0,12
Protocol: Vorgegangen wurde hierbei nach den Instruktionen des Herstellers. Überschüssige Maleimidgruppen auf den Platten wurden durch einstündige Inkubation der Platten mit einer Cysteinlösung (10 µg/ml) blockiert.
Die Durchführung erfolgt in folgenden Schritten: • Variante 1 • 1a. Inkubation der Streptavidin-beschichteten Mikrotiterplatten mit dem Biotingekoppelten Peptid. • 2a. Zugabe von 100 µl Extrakt aus den untersuchten Tiergeweben in die Wells nach Bindung des Peptids über Biotin und Streptavidin. Oder: • 1a. Inkubation der Extrakte aus den untersuchten Tiergeweben mit dem Biotingekoppelten Peptid. • 2a. Zugabe von 100 µl der Inkubationsmischungen nach Bindung des Biotin-Peptids an 14-3-3 in die Wells. • 3. Waschen. • 4. Quantifizierung der Peptid-14-3-3 Komplexe über markierte Antikörper. Als Markierung kann zum Beispiel die alkalische Phosphatase verwendet werden; als Substrat zum Nachweis dient dann 5-Brom-4-Chlor-3-Indolylphosphat/Nitroblau-Tetrazolium. • 5. Detektion mittels eines ELISA-Platten-Readers. • Variante 2 • 1. Zugabe von 100 µl Extrakt in die Wells der Mikrotiterplatten mit dem gekoppelten Peptid und Inkubation. • 2. Waschen. • 3. Quantifizierung der Peptid-14-3-3 Komplexe über markierte Antikörper (siehe Variante 1). • 4. Detektion mittels eines ELISA-Platten-Readers.
Die in Tabelle 1 angegebenen Mengen an PCB 77, PCB 118 und PCB 153 wurden nach Auflösung in Kornöl in Klieschen (Limanda limanda) injiziert. […] Nach den angegebenen Zeiträumen wurde den Tieren die Leber entnommen und sofort eingefroren. Die Bestimmung des Gehalts an 14-3-3 in den Lebern erfolgte nach Homogenisation durch Mörsern der gefrorenen Gewebeproben in dem dreifachen Volumen an Phosphat-Puffer mit 1 mM EDTA und 1 mM Phenylmethylsulfonylfluorid.

14-3-3 [1] = assay: Northern blotting of 14-3-3 mRNA after exposure of the sponge; type: in vivo, G. cydonium; conditions: PCB 118 2 µg/g, 17 beta-Östradiol 20 ng/g, alone or in combination; 17 beta-Östradiol = 100% reference value; incubation 3 or 6 days; not detectable without agents
From the text: (§1) Für eine Quantifizierung der mRNA für 14-3-3 mittels Northern-Blotting Verfahren werden Gensonden hergestellt, die von den konservierten Anfangsbereichen [aa45-aa57] bis zu den konservierten Endbereichen [aa214-aa234] des 14-3-3 Proteins reichen (ABB. 2). Als Methodik wird die PCR-Klonierung eingesetzt. Die erhaltenen APPROX 500 bp langen Sonden eignen sich erfahrungsgemäß gut für Northern-Blotting-Untersuchungen.
(§2) Die quantitative Auswertung der Signale kann zum Beispiel mit Hilfe des Chemilumineszenz-Verfahrens (Stanley und Kricka, Bioluminescence and chemiluminescence: current status. John Wiley & Sons, New York, 1990) in Verbindung mit einem Phospholmager (z. B. GS-525 Molecular Imager der Firma Bio-Rad) erfolgen; Dinatrium 2-Chlor-5-(4-methoxyspiro 1,2-dioxetane-3,2'-(5'-chlor)-tricyclo[3.3.1.13,7]decan-4-yl)phenyl-phosphat (CDP) wird hierfür als Substrat angewandt.
Durchfiihrung: • (a) Exposition von G. cydonium gegenüber PCB 118: 1 ml PCB 118 (0.1 mg/ml in Kornöl) wurde in […] Schwammgewebe injiziert. Die Proben wurden in Seewasser für bis zu 6 Tage in 20 1 Aquarien bei 17°C unter kontinuierlicher Belüftung inkubiert; das Wasser wurde einmal am Tag 2 gewechselt. Aliquote Teile des Gewebes (ungefähr je 200 mg) wurden zum Zeitpunkt Null oder nach einer Inkubationszeit von 0.5, 1, 3, 5 und 6 Tagen entnommen. […]

14-3-3 [2] = assay: Keeping experiments with PCB 118: 14-3-3 expression by Northern and Western blotting; type: in vivo, Geodia cydonium; conditions: 2 µg PCB 118/g wet weight, 0,5 to 6 days; Northern (mRNA) and Western blotting (protein)
From the text: as §1, §2
Der Nachweis der Expression von 14-3-3 auf Protein-Ebene erfolgt mittels Antikörper. Entweder können kommerzielle (z. B. von der Firma Calbiochem/Oncogene) oder gegen das rekombinante Invertebraten-Protein 14-3-3 aus Geodia cydonium gezogene Antikörper eingesetzt werden. Zur Quantifizierung der 14-3-3 Proteine werden Western-Blots mit Extrakten des Bioindikators hergestellt. Die Signale können wieder unter Anwendung des Chemilumineszenz-Verfahrens quantifiziert werden. Die Gewebeextrakte können z. […]

[3] = i.p. 0.03 mg PCB pro kg Limanda limanda

Row | SMILES | 14-3-3 Protein (OD-Einheit) (14-3-3 Protein; [3]) | Niveau der mRNA von 14-3-3 (14-3-3 [1]) [%] | also measured
1 | Clc1cc(Cl)c(-c2cc(Cl)c(Cl)cc2Cl)cc1Cl [PCB153, PCB 153] | 0,81 OD-Einheit | – | –
2 | [Cd] [Cadmium] | – | – | 14-3-3 Protein (OD-Einheit) (14-3-3 Protein; Cadmium 0,01 mg/kg i.p.): 0,30 OD-Einheit; 14-3-3 Protein (OD-Einheit) (14-3-3 Protein; Cadmium 0,1 mg/kg i.p.): 0,98 OD-Einheit; 14-3-3 Protein (OD-Einheit) (14-3-3 Protein; Cadmium 0,03 mg/kg i.p.): 0,75 OD-Einheit
3 | Clc1ccc(-c2cc(Cl)c(Cl)cc2Cl)cc1Cl [PCB 118] | 0,74 OD-Einheit | 30 | Expression des 14-3-3-Gens (14-3-3 [2]): von nicht nachweisbar auf sehr hohe Werte induziert
4 | C[C@]12CC[C@@H]3c4ccc(O)cc4CC[C@H]3[C@@H]1CC[C@@H]2O [17 beta-Östradiol] | – | 100 | –
5 | Clc1ccc(-c2ccc(Cl)c(Cl)c2)cc1Cl [PCB77, PCB 77] | 0,97 OD-Einheit | – | –
